Test results: publication PMC2911657 (The Journal of Cell Biology, 2010)
pIC50: −log10 of the molar value. “Also recorded” adds a separate entry of the source. Read-outs that look alike come from different tables or passages of the source. One block for each molecule: values may come before it.

Assays:
[1] = molecular target: human AURORA B1–344–INCENP835–903 complex (Homo sapiens, UniProt Q96GD4); assay: In vitro kinase assay on AURORA B–INCENP complex, substrate histone H3; type: biochemical
MPS1 [2] = molecular target: T1, MPS1 (Homo sapiens, UniProt P33981); assay: In vitro kinase assay on MPS1; type: biochemical; details: for MPS1 inhibition in vitro: 1 µM
T1 sequence (P33981 1-857): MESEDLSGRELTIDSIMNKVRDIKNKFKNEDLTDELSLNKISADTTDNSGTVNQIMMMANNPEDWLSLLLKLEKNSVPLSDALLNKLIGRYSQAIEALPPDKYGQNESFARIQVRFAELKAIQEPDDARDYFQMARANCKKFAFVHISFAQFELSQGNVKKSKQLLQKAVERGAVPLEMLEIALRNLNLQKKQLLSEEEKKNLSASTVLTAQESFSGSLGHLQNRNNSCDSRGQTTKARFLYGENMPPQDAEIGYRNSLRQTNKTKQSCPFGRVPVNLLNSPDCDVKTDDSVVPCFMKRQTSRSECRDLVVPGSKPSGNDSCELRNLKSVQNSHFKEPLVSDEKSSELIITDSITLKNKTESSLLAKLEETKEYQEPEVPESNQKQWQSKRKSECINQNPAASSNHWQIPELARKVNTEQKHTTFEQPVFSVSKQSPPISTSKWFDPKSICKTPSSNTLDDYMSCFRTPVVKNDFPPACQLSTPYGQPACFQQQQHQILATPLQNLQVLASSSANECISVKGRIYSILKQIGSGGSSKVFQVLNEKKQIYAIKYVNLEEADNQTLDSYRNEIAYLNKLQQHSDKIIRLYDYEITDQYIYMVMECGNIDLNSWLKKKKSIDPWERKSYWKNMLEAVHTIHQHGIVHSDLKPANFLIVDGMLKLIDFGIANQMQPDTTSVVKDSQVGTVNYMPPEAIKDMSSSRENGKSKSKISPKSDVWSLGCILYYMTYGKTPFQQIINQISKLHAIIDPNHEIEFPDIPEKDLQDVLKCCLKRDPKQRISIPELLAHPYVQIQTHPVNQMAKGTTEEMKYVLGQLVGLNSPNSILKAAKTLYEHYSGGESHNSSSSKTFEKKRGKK

HeLa cells [3] = assay: Spindle checkpoint: duration of mitotic arrest, time-lapse video microscopy; type: cell-based, human
HeLa cells [4] = assay: Cytokinesis, time-lapse experiment; type: cell-based, human
[5] = tested on: P-S10-H3 (AURORA B substrate); assay: P-S10-H3 levels by Western blotting in mitotic HeLa cell lysates; type: cell-based, human
HeLa cells [6] = assay: Chromosome congression / alignment, immunofluorescence; type: cell-based, human; details: 100 µM
[7] = tested on: ROD, ZWILCH, ZW10, SPINDLY, MAD1; assay: Kinetochore localization of RZZ, SPINDLY and MAD1, immunofluorescence; type: cell-based, human
[8] = tested on: P-S7–CENP-A (AURORA B substrate); assay: Kinetochore P-S7–CENP-A levels, immunofluorescence; type: cell-based, human
MAD2 = details: 100 nM hesperadin, ref Yang et al., 2009, cited from earlier work
MPS1 [9] = molecular target: T1, MPS1; assay: Kinetochore localization of MPS1, immunofluorescence; type: cell-based; details: 0.5 µM; nocodazole
BUB1 = assay: In vitro kinase assay on BUB1; type: biochemical, human
MAPKs = details: 1 µM; ref D’Alise et al., 2008; cited from earlier work
HeLa cells [10] = details: cold treatment
PLK1 = details: 1 µM
NEK2A = details: 1 µM
TAO1 = details: 1 µM
HeLa cells [11] = details: concentrations up to 10 µM; MG132
HASPIN = details: 1 µM
HeLa cells [12] = tested on: HeLa cells
PRP4 = details: 1 µM
AURORA B = details: HeLa cells
CDK1–CYCLIN B = details: 1 µM

Sequence of human AURORA B1–344–INCENP835–903 complex (Q96GD4 whole entry): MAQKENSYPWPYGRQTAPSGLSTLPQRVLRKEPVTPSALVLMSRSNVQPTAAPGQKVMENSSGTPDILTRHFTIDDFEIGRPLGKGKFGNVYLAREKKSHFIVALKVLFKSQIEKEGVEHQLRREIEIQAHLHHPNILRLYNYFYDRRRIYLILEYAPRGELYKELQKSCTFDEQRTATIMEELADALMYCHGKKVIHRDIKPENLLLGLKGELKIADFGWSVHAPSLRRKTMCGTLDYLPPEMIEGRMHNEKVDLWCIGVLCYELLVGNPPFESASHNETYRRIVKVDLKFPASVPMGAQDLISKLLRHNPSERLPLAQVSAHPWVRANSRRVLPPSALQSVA
Sequence of human AURORA B1–344–INCENP835–903 complex (Q9NQS7 835-903 partner limits assumed): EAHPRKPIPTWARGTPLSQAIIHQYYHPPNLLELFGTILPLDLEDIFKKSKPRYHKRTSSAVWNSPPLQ

SMILES: Oc1c2ccccc2c2c3c(cccc13)N=N2 [SP600125]
- IC50 for AURORA B compared with IC50 for MPS1 [1]: significantly lower
- pIC50 (MPS1 [2]): ~5.60

SMILES: N#CC(=C(/N)Sc1ccccc1N)/C(C#N)=C(/N)Sc1ccccc1N [U0126]
- effect on duration of the spindle checkpoint (HeLa cells [3]; 10 µM): does not affect the duration of the spindle checkpoint

SMILES: COc1cc2c(Nc3ccc(NC(=O)c4ccccc4)cc3)ncnc2cc1OCCCN1CCOCC1 [ZM447439]
- concentration range in which cytokinesis is impaired (HeLa cells [4]; time-lapse): 0.1 to 0.5 µM
- concentration inhibiting P-S10-H3 ([5]; Western blotting): ≤ 500 nM
- MPS1 inhibition in vitro (MPS1 [2]): did not inhibit

SMILES: Cc1ccc2c(c1)C(=O)C1(O)CCN(c3ccccc3)C1=N2 (stereo not drawn) [blebbistatin]
- effect on chromosome alignment (HeLa cells [6]): did not cause any evident effects; also recorded: does not cause evident perturbations
- ability of mitotic HeLa cells to maintain a nocodazole-mediated arrest (HeLa cells [3]; unpublished data): did not significantly affect

SMILES: COC[C@H]1OC(=O)c2coc3c2[C@@]1(C)C1=C(C3=O)[C@@H]2CCC(=O)[C@@]2(C)C[C@H]1OC(C)=O [wortmannin]
- effect on duration of the spindle checkpoint (HeLa cells [3]; 100 nM): does not affect the duration of the spindle checkpoint

Continued, in another order:

- MPS1 kinetochore staining (MPS1 [9]): prevented kinetochore localization
SMILES: CCS(=O)(=O)Nc1ccc2c(c1)/C(=C(/Nc1ccc(CN3CCCCC3)cc1)c1ccccc1)C(=O)N2 [hesperadin]
- cells with impaired cytokinesis (HeLa cells [4]; 5–10 nM range): 100%
- MAD1 and RZZ complex at kinetochores ([7]; 0.5–1.0 µM, high concentrations of nocodazole, unpublished data): lost from kinetochores
- P-S7–CENP-A antigen ([8]; 100 nM): invisible
- MPS1 inhibition in vitro (MPS1 [2]): failed to observe significant MPS1 (and BUB1) inhibition
- MAD2 at kinetochores (MAD2; high nocodazole (3.2 µM)): retained on kinetochores
- MAD2 at kinetochores (MAD2; low nocodazole concentrations): absent from kinetochores
- BUB1 inhibition in vitro (BUB1; 1 µM hesperadin): failed to observe significant MPS1 (and BUB1) inhibition

- effect on PLK1 kinase activity (PLK1): failed to alter the activity
- effect on NEK2A kinase activity (NEK2A): failed to alter the activity
- effect on TAO1 kinase activity (TAO1): failed to alter the activity
- effect on HASPIN kinase activity (HASPIN): failed to alter the activity
- effect on PRP4 kinase activity (PRP4): failed to alter the activity
- effect on BUB1 kinase activity (BUB1; 1 µM): failed to alter the activity
- effect on CDK1–CYCLIN B kinase activity (CDK1–CYCLIN B): failed to alter the activity
SMILES: c1nc2nc(Nc3ccc(N4CCOCC4)cc3)nc(NC3CCCCC3)c2[nH]1 [reversine]
- inhibition of MAPKs (MAPKs): not significantly inhibited
- inhibition of kinetochore fiber formation (HeLa cells [10]): did not inhibit
- effect on cytokinesis (HeLa cells [4]; 0.5 µM): does not significantly inhibit
- effect on cytokinesis (HeLa cells [4]; 1 µM): unaffected
- effect on P-S10-H3 ([5]; 0.5 µM): no effects
- kinetochore localization of ROD, ZWILCH, ZW10, SPINDLY and MAD1 ([7]; 0.5 µM reversine, 330 nM nocodazole, MG132): largely evicted from kinetochores
- MAD1 localization to kinetochores ([7]; nocodazole 0.33 or 3.3 µM): failed to localize to kinetochores
- kinetochore levels of P–CENP-A ([8]; up to 5 µM, nocodazole): not influenced; also recorded: unaltered
- inhibition of spindle bipolarization (HeLa cells [11]): did not inhibit
- spindle checkpoint in the presence of Taxol, STLC or BI2536 (HeLa cells [3]; 500 nM Taxol, 10 µM STLC or BI2536): caused an override of the checkpoint
- effect on centrosome duplication (HeLa cells [12]): failed to see an effect
- kinetochore localization of AURORA B (AURORA B): unaffected
